Measurements published in US20260271933A1 (priority 2023, published 2026).

Assays:
[1] = system: Phytophthora infestans; test: whole plant or invertebrate; type: in vivo; settings: in Solanum lycopersicum, foliar, read-out: control of Phytophthora infestans
[2] = system: Pythium ultimum; test: Pythium ultimum / liquid culture (seedling damping off); type: cell-based; settings: Globisporangium ultimum, growth inhibition determined photometrically, compared to untreated control
Method: Pythium ultimum/Liquid Culture (Seedling Damping Off)
Mycelia fragments and oospores of a newly grown liquid culture of the fungus are directly mixed into nutrient broth (PDB potato dextrose broth). After placing a (DMSO) solution of test compound into a microtiter plate (96-well format), the nutrient broth containing the fungal mycelia/spore mixture is added.
The test plates are incubated at 24° C. and the inhibition of growth is determined photometrically 2-3 days after application.

| Structure (SMILES) | pest or weed control at 200 ppm [1] [%] | inhibition of growth at 20 ppm [2] [%] |
| --- | --- | --- |
| COC(=O)Nc1ccc(-c2cnc3c(C)cc(C(=O)N4CCOc5cc(F)ccc54)cn23)cn1 [Compound 5, methyl N-[5-[6-(7-fluoro-2,3-dihydro-1,4-benzoxazine-4-carbonyl)-8-methyl-imidazo[1,2-a]pyridin-3-yl]-2-pyridyl]carbamate] | ≥ 80 | ≥ 80 |
| COC(=O)Nc1ccc(-c2cnc3ccc(C(=O)N4CC(C)Cc5ccccc54)cn23)cn1 (stereo not shown) [Compound 8, methyl N-[5-[6-(3-methyl-3,4-dihydro-2H-quinoline-1-carbonyl)imidazo[1,2-a]pyridin-3-yl]-2-pyridyl]carbamate] |  | ≥ 80 |
| COC(=O)Nc1ccc(-c2cnc3ccc(C(=O)N(C)c4cccc(F)c4OC)cn23)cn1 [Compound 12, methyl N-[5-[6-[(3-fluoro-2-methoxy-phenyl)-methyl-carbamoyl]imidazo[1,2-a]pyridin-3-yl]-2-pyridyl]carbamate] | ≥ 80 | ≥ 80 |
| COC(=O)Nc1ccc(-c2cnc3ccc(C(=O)N4CCCc5c(F)cccc54)cn23)cn1 [Compound 13, methyl N-[5-[6-(5-fluoro-3,4-dihydro-2H-quinoline-1-carbonyl)imidazo[1,2-a]pyridin-3-yl]-2-pyridyl]carbamate] |  | ≥ 80 |
| COC(=O)Nc1ccc(-c2cnc3ccc(C(=O)N4c5ccccc5CCC4C)cn23)cn1 (stereo not shown) [Compound 14, methyl N-[5-[6-(2-methyl-3,4-dihydro-2H-quinoline-1-carbonyl)imidazo[1,2-a]pyridin-3-yl]-2-pyridyl]carbamate] |  | ≥ 80 |
| COC(=O)Nc1ccc(-c2cnc3ccc(C(=O)N4CCCc5cc(Cl)cc(F)c54)cn23)cn1 [Compound 17, methyl N-[5-[6-(6-chloro-8-fluoro-3,4-dihydro-2H-quinoline-1-carbonyl)imidazo[1,2-a]pyridin-3-yl]-2-pyridyl]carbamate] | ≥ 80 | ≥ 80 |
| COC(=O)Nc1ccc(-c2cnc3ccc(C(=O)N4CC(O)Cc5cc(F)ccc54)cn23)cn1 (stereo not shown) [Compound 24, methyl N-[5-[6-(6-fluoro-3-hydroxy-3,4-dihydro-2H-quinoline-1-carbonyl)imidazo[1,2-a]pyridin-3-yl]-2-pyridyl]carbamate] | ≥ 80 | ≥ 80 |
| COC(=O)Nc1ccc(-c2cnc3ccc(C(=O)N4CCCc5cc(F)c(F)cc54)cn23)cn1 [Compound 26, methyl N-[5-[6-(6,7-difluoro-3,4-dihydro-2H-quinoline-1-carbonyl)imidazo[1,2-a]pyridin-3-yl]-2-pyridyl]carbamate] |  | ≥ 80 |
| COC(=O)Nc1ccc(-c2cnc3ccc(C(=O)N4CCCc5c(C)cccc54)cn23)cn1 [Compound 27, methyl N-[5-[6-(5-methyl-3,4-dihydro-2H-quinoline-1-carbonyl)imidazo[1,2-a]pyridin-3-yl]-2-pyridyl]carbamate] | ≥ 80 | ≥ 80 |
| COC(=O)Nc1ccc(-c2cnc3ccc(C(=O)N4CCCc5c4ccc(C)c5F)cn23)cn1 [Compound 28, methyl N-[5-[6-(5-fluoro-6-methyl-3,4-dihydro-2H-quinoline-1-carbonyl)imidazo[1,2-a]pyridin-3-yl]-2-pyridyl]carbamate] |  | ≥ 80 |
| COC(=O)Nc1ccc(-c2cnc3ccc(C(=O)N4CC(OC)Cc5ccccc54)cn23)cn1 (stereo not shown) [Compound 32, methyl N-[5-[6-(3-methoxy-3,4-dihydro-2H-quinoline-1-carbonyl)imidazo[1,2-a]pyridin-3-yl]-2-pyridyl]carbamate] | ≥ 80 | ≥ 80 |
| COC(=O)Nc1ccc(-c2cnc3ccc(C(=O)N4CC(O)Cc5ccccc54)cn23)cn1 (stereo not shown) [Compound 43, methyl N-[5-[6-(3-hydroxy-3,4-dihydro-2H-quinoline-1-carbonyl)imidazo[1,2-a]pyridin-3-yl]-2-pyridyl]carbamate] | ≥ 80 | ≥ 80 |
| COC(=O)Nc1ccc(-c2cnc3ccc(C(=O)N(C)c4ccccc4C(=O)OC)cn23)cn1 [Compound 46, methyl 2-[[3-[6-(methoxycarbonylamino)-3-pyridyl]imidazo[1,2-a]pyridine-6-carbonyl]-methyl-amino]benzoate] | ≥ 80 | ≥ 80 |
| COC(=O)Nc1ccc(-c2cnc3ccc(C(=O)N(C)c4cc(Cl)ccc4C)cn23)cn1 [Compound 47, methyl N-[5-[6-[(5-chloro-2-methyl-phenyl)-methyl-carbamoyl]imidazo[1,2-a]pyridin-3-yl]-2-pyridyl]carbamate] |  | ≥ 80 |
| COC(=O)Nc1ccc(-c2cnc3ccc(C(=O)N4CCCc5cc(Cl)ccc54)cn23)cn1 [Compound 48, methyl N-[5-[6-(6-chloro-3,4-dihydro-2H-quinoline-1-carbonyl)imidazo[1,2-a]pyridin-3-yl]-2-pyridyl]carbamate] |  | ≥ 80 |
| COC(=O)Nc1ccc(-c2cnc3ccc(C(=O)N(C)c4ccc(Cl)cc4F)cn23)cn1 [Compound 53, methyl N-[5-[6-[(4-chloro-2-fluoro-phenyl)-methyl-carbamoyl]imidazo[1,2-a]pyridin-3-yl]-2-pyridyl]carbamate] |  | ≥ 80 |
| COC(=O)Nc1ccc(-c2cnc3ccc(C(=O)N4CCCc5ccc(OC)cc54)cn23)cn1 [Compound 56, methyl N-[5-[6-(7-methoxy-3,4-dihydro-2H-quinoline-1-carbonyl)imidazo[1,2-a]pyridin-3-yl]-2-pyridyl]carbamate] |  | ≥ 80 |
| COC(=O)Nc1ccc(-c2cnc3ccc(C(=O)N4CCCc5c(OC(F)F)cccc54)cn23)cn1 [Compound 58, methyl N-[5-[6-[5-(difluoromethoxy)-3,4-dihydro-2H-quinoline-1-carbonyl]imidazo[1,2-a]pyridin-3-yl]-2-pyridyl]carbamate] |  | ≥ 80 |
| CCN(C(=O)c1ccc2ncc(-c3ccc(NC(=O)OC)nc3)n2c1)c1ccccc1C(=O)OC [Compound 59, methyl 2-[ethyl-[3-[6-(methoxycarbonylamino)-3-pyridyl]imidazo[1,2-a]pyridine-6-carbonyl]amino]benzoate] | ≥ 80 |  |
| COC(=O)Nc1ccc(-c2cnc3ccc(C(=O)N(C)c4ccccc4OC)cn23)cn1 [Compound 60, methyl N-[5-[6-[(2-methoxyphenyl)-methyl-carbamoyl]imidazo[1,2-a]pyridin-3-yl]-2-pyridyl]carbamate] |  | ≥ 80 |
| COC(=O)Nc1ccc(-c2cnc3ccc(C(=O)N(C)c4cc(Cl)ccc4OC)cn23)cn1 [Compound 61, methyl N-[5-[6-[(5-chloro-2-methoxy-phenyl)-methyl-carbamoyl]imidazo[1,2-a]pyridin-3-yl]-2-pyridyl]carbamate] |  | ≥ 80 |
| COC(=O)Nc1ccc(-c2cnc3ccc(C(=O)N4CCCc5cc(OC)c(F)cc54)cn23)cn1 [Compound 63, methyl N-[5-[6-(7-fluoro-6-methoxy-3,4-dihydro-2H-quinoline-1-carbonyl)imidazo[1,2-a]pyridin-3-yl]-2-pyridyl]carbamate] |  | ≥ 80 |
| COC(=O)Nc1ccc(-c2cnc3ccc(C(=O)N(C)c4ccc(Cl)cn4)cn23)cn1 [Compound 68, methyl N-[5-[6-[(5-chloro-2-pyridyl)-methyl-carbamoyl]imidazo[1,2-a]pyridin-3-yl]-2-pyridyl]carbamate] |  | ≥ 80 |
